Measured values: US20090018194A1, “Use of antimicrobial agents derived from alliaceous plants for the prevention and control of crop diseases, post-harvest rot and as environmental disinifectant products” (DMC Research Center, S.L., priority 2007, published 2009)

Experiments:
[1] = tested on: Candida magnoliae DSMZ 70638; assay: agar diffusion test with impregnated cellulose discs; assay type: cell-based; settings: incl. 6 mm disc
[2] = tested on: Bacillus subtilis ATCC 6633; assay: as above; assay type: cell-based; settings: incl. 6 mm disc
[3] = tested on: Enteroccus faecalis ATCC 29212; assay: as above; assay type: cell-based; settings: incl. 6 mm disc
[4] = tested on: Listeria innocua CECT 4030; assay: as above; assay type: cell-based; settings: incl. 6 mm disc
[5] = tested on: Salmonella typhimurium ATCC 13311; assay: as above; assay type: cell-based; settings: incl. 6 mm disc
[6] = tested on: Penicillium italicum Wild strain Supplied by UdL-IRTA; assay: agar diffusion test, wild phytopathogens isolated from citrus rot; assay type: cell-based; settings: incl. 6 mm disc
[7] = tested on: Leveillula taurica; assay: control of powdery mildew in peppers grown in greenhouses; assay type: in vivo; settings: doses of 1000 and 2000 ppm; peppers in greenhouse; reference Ciproconazol/Triadimenol
Description: Some of these tests were especially significant, such as the result against powdery mildew in peppers grown in greenhouses in Almeria. The relevance of the data obtained is based on the scarcity of effective and non-synthetic systems that control this disease (caused by Leveillula taurica).
In the case of this test, spray guns were used, via the greenhouse irrigation system, to apply solutions of 1000 ppm and 2000 ppm of PTS and PTSO, with a nutrient broth volume of 20, 30, 40 l/parcel, depending on the application. These solutions were distributed in parcels of 4 rows, located in the zone of the greenhouse with a greater incidence of powdery mildew, while a reference product was applied in the rest of the warehouse: Ciproconazol (Caddy 10 WG at 10 gr/100 l) for the first and second application, Triadimenol (Bayfidan 25 EC at 25 ml/100 l) for the third application and Ciproconazol/Triadimenol for the final application.

[8] = tested on: Fusarium spp.; assay: field tests on affected asparagus, Fusarium spp. in the soil; assay type: in vivo; settings: for % Reduction / % elimination: soil, 60 days after application, compared to untreated control
Protocol: (§1) The treatment doses used were 250, 500 and 1000 ppm of both active principles (PT and PTSO), and the initial incidence of the pathogen was compared with its presence 60 days after its application.
(§2) To analyze the growth of the crops infected by Fusarium spp. after the treatments, root and soil samples were taken and tests were performed in the laboratory to investigate the incidence of the pathogen in the roots and soil. The cultivation media used were potato dextrose agar and rose bengal agar (to prevent the invasive character of the Mucoralean fungi).
(§3) The soil analysis was conducted by sequential dilutions of the soils in physiological serum with a subsequent sowing in the above mentioned media. The analysis of the roots was performed after dissection of the infected tissues, which were deposited in triplicate on filter paper located above both media, and their evolution over time was studied.
(§4) The data are expressed as a percentage of elimination and reduction as a function of the treatment dose compared to the untreated control samples.

[9] = tested on: Fusarium spp.; assay: field tests on affected asparagus, Fusarium spp. in roots; assay type: in vivo; settings: 60 days after application, compared to untreated control
Protocol: as §1, §2, §3, §4

[10] = tested on: post-harvest rot; assay: post-harvest rot of oranges originating directly from the field (not inoculated); assay type: in vivo
Protocol: Once the oranges had been artificially contaminated, the treatments were conducted by immersing the oranges in solutions of PTS and PTSO prepared at doses of 1600 and 2500 ppm, and were stored at 20° C.
The assessment of the effectiveness of PTS and PTSO comprised counting of the number of fruits affected by rot in the inoculated zone, to determine the percentage of fruit affected for each treatment and fungus inoculated, and expressing this effectiveness as a percentage of reduction of the affected fruit.
On the basis of the results obtained by the application of PTS and PTSO to oranges of the Navelina variety originating directly from the field, both products, applied in the specified doses, are effective in the control of post-harvest rot. Both PTS and PTSO in turn reduce by 50% the quantity of fruit affected at the end of the refrigeration period (28 days at a temperature of 5° C.) compared to the untreated fruit, as a result of which they are an effective alternative to the synthetic treatments conventionally used.

[11] = tested on: mixture of fungi (P. expansum, P. italicum, P. digitatum and A. alternata); assay: disinfection of rooms by means of fogging
[12] = tested on: fungal population; assay: disinfection by drencher of naturally contaminated containers of a citrus fruit processing plant; settings: PTS 750 mm
[13] = tested on: the most characteristic diseases that affect these crops; assay: in vivo tests against pre-harvest diseases in various crops (Table 7); settings: pre-harvest diseases and pathogens listed in Table 7
Protocol: B. Likewise, numerous tests were conducted “in vivo” to determine the effectiveness of the products for pre- and post-harvest treatments, and also as disinfectant agents for agricultural soils and facilities in the food processing industries.
In post-harvest treatments, tests were conducted in strawberries, citrus fruits, stone fruits and tropical fruits. Tests were also conducted on vegetable plants in a greenhouse (tomatoes, melons, zucchini, peppers, cucumbers and green beans).

[14] = tested on: plants inoculated with mycorrhizal fungi; settings: in vivo

## CCCS[S+]([O-])CCC (stereo not shown) [PTS, Propyl Propyl Thiosulfinate]
[1]; 25 ppm
  diameter of the microbial inhibition halo: 22 mm
[1]; 50 ppm
  diameter of the microbial inhibition halo: 30 mm
[1]; 100 ppm
  diameter of the microbial inhibition halo: 38 mm
[2]; 60 ppm
  diameter of the microbial inhibition halo: 32 mm
[2]; 125 ppm
  diameter of the microbial inhibition halo: 35 mm
[2]; 250 ppm
  diameter of the microbial inhibition halo: 40 mm
[2]; 500 ppm
  diameter of the microbial inhibition halo: 55 mm
[2]; 1000 ppm
  diameter of the microbial inhibition halo: 55 mm
[3]; 60 ppm
  diameter of the microbial inhibition halo: 15 mm
[3]; 125 ppm
  diameter of the microbial inhibition halo: 22 mm
[3]; 250 ppm
  diameter of the microbial inhibition halo: 26 mm
[3]; 500 ppm
  diameter of the microbial inhibition halo: 30 mm
[3]; 1000 ppm
  diameter of the microbial inhibition halo: 30 mm
[4]; 60 ppm
  diameter of the microbial inhibition halo: 13 mm
[4]; 125 ppm
  diameter of the microbial inhibition halo: 23 mm
[4]; 250 ppm
  diameter of the microbial inhibition halo: 32 mm
[4]; 500 ppm
  diameter of the microbial inhibition halo: 37 mm
[4]; 1000 ppm
  diameter of the microbial inhibition halo: 40 mm
[5]; 60 ppm
  diameter of the microbial inhibition halo: 11 mm
[5]; 125 ppm
  diameter of the microbial inhibition halo: 15 mm
[5]; 250 ppm
  diameter of the microbial inhibition halo: 22 mm
[5]; 500 ppm
  diameter of the microbial inhibition halo: 23 mm
[5]; 1000 ppm
  diameter of the microbial inhibition halo: 25 mm
[6]; 30 ppm
  diameter of the microbial inhibition halo: 0 mm
[6]; 60 ppm
  diameter of the microbial inhibition halo: 0 mm
[6]; 125 ppm
  diameter of the microbial inhibition halo: 13 mm
[6]; 250 ppm
  diameter of the microbial inhibition halo: 13 mm
[6]; 500 ppm
  diameter of the microbial inhibition halo: 15 mm
[6]; 1000 ppm
  diameter of the microbial inhibition halo: 20 mm
[7]
  control of powdery mildew, as % of the effectiveness of the reference product: 92%
[8]; 250 ppm
  % Reduction: 0%
  % elimination: 100%
[8]; 500 ppm
  % Reduction: 12.5%
  % elimination: 87.5%
[8]; 1000 ppm
  % Reduction: 0%
  % elimination: 100%
[8]; Fusarium spp. in asparagus, disinfection of agricultural soil
  effectiveness of the application (in words): highly effective
[9]; 250 ppm
  % Reduction: 60%
  % elimination: 0%
[9]; 500 ppm
  % Reduction: 14%
  % elimination: 57%
[9]; 1000 ppm
  % Reduction: 13%
  % elimination: 58%
[10]; 1666 ppm, oranges refrigerated for 28 days at 5° C., 200 fruits not inoculated
  % of fruit affected: 10%
[10]; specified doses, end of the refrigeration period (28 days at 5° C.)
  reduction of the quantity of fruit affected compared to the untreated fruit: 50%
[11]; 750 ppm, Environment
  Reduction in the population of the mixture of fungi expressed in %: 89%
[11]; 750 ppm, Walls
  Reduction in the population of the mixture of fungi expressed in %: 96%
[11]; 1050 ppm, Environment
  Reduction in the population of the mixture of fungi expressed in %: 100%
[11]; 1050 ppm, Walls
  Reduction in the population of the mixture of fungi expressed in %: 97%
[12]; Bottom of the pallet, Beginning of bath
  Reduction of the fungal population (%): 87%
[12]; Bottom of the pallet, End of bath
  Reduction of the fungal population (%): 79%
[12]; Side of the pallet, Beginning of bath
  Reduction of the fungal population (%): 97%
[12]; Side of the pallet, End of bath
  Reduction of the fungal population (%): 100%
[13]
  control capability against the most characteristic diseases of the crops (in words): high control capability
[14]
  phytotoxicity to the plant: did not suffer phytotoxicity
